Row | melting point [°C] | Structure (SMILES)
1 | 120 | CN(C)C(=O)Nc1cc(C(C)(C)C)on1
2 | 131 to 133 | COc1cc([N+](=O)[O-])c(Cl)cc1N
3 | 138 to 143 | O=C1c2ccccc2C(=O)N1CC1CNCCO1 (centres undefined)
4 | 34 | CCC1C(=O)OCC1Cc1cncn1C (centres undefined)
5 | 26.5 | COc1ccc2ncccc2c1
6 | 115 to 117 | CC1(C)CC(=O)c2cc(-c3ccccc3)n(Cc3ccc(Cl)cc3)c2C1
7 | 205 | O=CNC(c1ccccc1)C(O)c1ccccc1 (centres undefined)
8 | -65 | CCCCOCCCN
9 | -8 | CCc1cccc(N)c1
10 | 36 to 43 | CCCCCCCCCCCCSCCCCCCCCCCCC
11 | 63.7 to 65.5 | N#Cc1cccc(C(=O)Cc2cccc(Oc3ccccc3)c2)c1
12 | 239 to 240 | Cc1ccccc1N1CSc2nnc(-c3cccc([N+](=O)[O-])c3)n2C1
13 | 160 | O=C(c1noc(-c2ccc([N+](=O)[O-])cc2)c1S(=O)(=O)c1ccccc1)c1cccc2ccccc12
14 | -22.5 | CCCCCCCCOC(=O)CCCCCC
15 | 243 to 246 | S=c1[nH]c2ncccc2o1
16 | 126 to 127 | CCC1C(=CC(=O)CI)N(C)C(C)(C)N1O (centres undefined)
17 | 90 to 93 | N#Cc1c([N+](=O)[O-])ccc(Cl)c1Cl
18 | 32.5 | O=[N+]([O-])c1ccccc1C(F)(F)F
19 | -20 | CCCCc1ccccc1O
20 | 211 | Cc1nc(/C(C#N)=N/Nc2cccc(C(F)(F)F)c2)sc1/N=N/c1ccc(F)cc1
21 | 198 to 200 | O=C(O)c1cc2cc(Cl)cc(Cl)c2oc1=O
22 | -90 | CC(C)CC(C)O (centres undefined)
23 | 183 to 185 | COc1cc2c(cc1OC)C(c1ccc([N+](=O)[O-])cc1)N(C(C)=O)CC2 (centres undefined)
24 | 182 | O=[N+]([O-])c1cc(-c2ccc(O)cc2)ccc1O
25 | 167 | O=Cc1c(Cl)[nH]n(-c2ccccc2)c1=O
26 | 153 to 157 | O=C1C2CCCC1CCC2
27 | 36 | CCOC(=O)C1CC(=O)C(=C(O)C2CC2)C(=O)C1 (centres undefined)

Row | melting point [°C] | Structure (SMILES)
28 | -29 | Nc1ccccc1F
29 | 61 | CCN(CC)CCOC(=O)c1ccc(N)cc1
30 | -69 | Cc1ccsc1
31 | 71 to 72 | Cn1cc(Br)c(C=O)n1
32 | 180 | CC(=O)[C@H]1CC[C@H]2[C@@H]3CC=C4C[C@@H](OC(=O)CCC(=O)O)CC[C@]4(C)[C@H]3CC[C@]12C
33 | 195 | O=C(O)C1(C(=O)Nc2ccc(Cl)cc2Cl)CC1
34 | 12 | Cc1cc(C)c2cc(C)ccc2c1
35 | 142 to 145 | O=Cc1ccc(-n2ccnc2)cc1
36 | 8 | CCCS(=O)(=O)O
37 | 156 | Cc1ccc(C(c2ccc(C(c3ccc(C)o3)c3ccc(C)o3)cc2)c2ccc(C)o2)o1
38 | 77 | Fc1ccc(C(=S)N2CCCCC2)cc1
39 | 176 to 180 | CSc1nnc(N)s1
40 | 34 | CCCCCCCCN(CCCCCCCC)CCCCCCCC
41 | 139 | O=C(O)C=Cc1cc(F)ccc1F
42 | 124 to 125 | CC(C)(C)OC(=O)N1CCN(c2ccc(C#N)cc2)CC1
43 | 175 to 178 | Cc1cc(C(=O)O)nn1C
44 | 65 | CC(=O)n1cc(C)c2ccccc21
45 | 30.5 | CCOc1cc(C)ccc1O
46 | 103 | c1ccc(-c2cc3ccccc3cn2)cc1
47 | 132 | Cc1ccc(-c2csc(/C(C#N)=N\Nc3cccc(C)c3)n2)cc1
48 | 174 | Cc1csc(N)c1C(N)=O
49 | 236 | CN(C)c1ccc(N=Nc2ccc([N+](=O)[O-])cc2)cc1
50 | 81 to 83 | N#CCc1ccc(OS(=O)(=O)c2cc(Cl)cc(Cl)c2)cc1
51 | 119 | CC(C)(C)OC(=O)NC(CCC(N)=O)C(=O)O (centres undefined)
52 | 157 | CC1NC(=O)NC1CCCCCC(=O)O (centres undefined)
53 | 90 to 92 | Cc1c(C(=O)Cl)cnn1-c1ccc(F)cc1
54 | 75 | Oc1ccccc1N1CCCCC1

Row | melting point [°C] | Structure (SMILES)
55 | 63 to 64 | Brc1cccc(-n2cccc2)c1
56 | 48 | COC(=O)c1ccccc1CC#N
57 | 318 to 320 | N#Cc1c(-c2cccs2)cc(-c2ccco2)[nH]c1=O
58 | 225 to 227 | CC(C)[C@@H](O)[C@H](N)C(=O)O
59 | 230 | O=C(O)c1cc(Br)c(Br)s1
60 | 313 | O=C1c2ccccc2C(=O)c2c1cc(O)c(O)c2O
61 | 89 to 90 | O=Cc1ccc(N2CCCC2)nc1
62 | 92 | O=C(CCCN1CCN(c2ccccn2)CC1)c1ccc(F)cc1
63 | 39.2 | CCCCCCC(C=O)=Cc1ccccc1
64 | 127 to 130 | Cc1ccc(S(=O)(=O)N[C@@H](c2ccccc2)[C@@H](N)c2ccccc2)cc1
65 | 234 | COc1ccc(NC(=O)C(C)=NNC(N)=S)cc1
66 | 38 | CC1C(=O)C2(C)CCC1C2(C)C (centres undefined)
67 | 86 to 87 | O=C(Cl)c1ccc2sccc2c1
68 | 206 | CC12CCC(C(=CC(=O)NC(N)=O)C1=O)C2(C)C (centres undefined)
69 | 114 to 117 | CC(C)(C)C(CCC(=O)O)CC(=O)O (centres undefined)
70 | 136 to 139 | Nc1c(Br)cc(Br)cc1C=O
71 | 36 | CC(=O)OC(C(=O)Cl)c1ccccc1 (centres undefined)
72 | 178 | O=C(O)c1ccccc1P(c1ccccc1)c1ccccc1
73 | 205 | O=C(O)c1cc(O)ccc1F
74 | 92 | OC(c1ccc(Cl)cc1)c1ccc(Cl)cc1
75 | 118 | O=S(=O)(Cl)c1ccc(N2CCOCC2)nc1
76 | 271 to 273 | O=[N+]([O-])c1cnccc1O
77 | 128 | CC(C)(C(=O)N1C(=O)C=CC1(C)C)C(=O)N1C(=O)C=CC1(C)C
78 | 220 | OCC1OC(n2cnc3c2N=CNCC3O)CC1O (centres undefined)
79 | 63 to 64 | COC(=O)C(=O)CC(C)=O
80 | 100 | O=[N+]([O-])c1ccccc1C=NO

Row | Structure (SMILES) | melting point [°C]
81 | CSSC | -85
82 | COP(=S)(OC)Oc1cc(Cl)c(Br)cc1Cl | 53.5
83 | COC(=O)c1ccccc1S(=O)(=O)NC(=O)Nc1nc(C)nc(OC)n1 | 162
84 | FC(F)(F)S(F)(F)(F)(F)F | -87
85 | BrC(Br)=C(Br)Br | 56.5
86 | N#Cc1ccc([N+](=O)[O-])cc1Cl | 83 to 84
87 | CCCN(CCC)c1c([N+](=O)[O-])cc(S(C)(=O)=O)cc1[N+](=O)[O-] | 150
88 | CN1C(=O)CN=C(c2ccccc2F)c2cc([N+](=O)[O-])ccc21 | 166
89 | NC(=O)CS(=O)C(c1ccccc1)c1ccccc1 (centres undefined) | 164
90 | COc1c(C(C)(C)C)cc([N+](=O)[O-])c(C)c1[N+](=O)[O-] | 85
91 | Clc1ccc2c(c1)Oc1cc(Cl)c(Cl)c(Cl)c1O2 | 172
92 | CCC(C)(c1ccc(O)cc1)c1ccc(O)cc1 | 120
93 | Brc1cc(Br)c(Oc2cc(Br)c(Br)cc2Br)c(Br)c1 | 131 to 132
94 | CCN1C(=O)OC(C)(C)C1=O | 76.5
